From patent US12371454B2, “Cyclic peptide compound having Kras inhibitory action” (priority 2019, dated 2025)
Positions of bridges follow the written chain, without caps; N, C: chain ends. Non-standard residues stand in square brackets, D forms with d. Residues, ends and D or L forms follow the SMILES beside them. *: point of attachment. hPhe(3,5-F2-4-CF3) = N[C@@H](CCc1cc(F)c(C(F)(F)F)c(F)c1)C(=O)O; hPhe(3-Cl-4-CF3) = N[C@@H](CCc1ccc(C(F)(F)F)c(Cl)c1)C(=O)O; NMePhe(4-CF3) = CN[C@@H](Cc1ccc(C(F)(F)F)cc1)C(=O)O; Thiomorpholino(1,1-dioxo) = O=S1(=O)CCN(*)CC1; NMe3Pal(6-Me) = CN[C@@H](Cc1ccc(C)nc1)C(=O)O; NMeGly(cPent) = CN[C@H](C(=O)O)C1CCCC1; Pro(4,4-F2) = O=C(O)[C@@H]1CC(F)(F)CN1; Phe(2-F) = N[C@@H](Cc1ccccc1F)C(=O)O; NMeY = CN[C@@H](Cc1ccc(O)cc1)C(=O)O; NMeCha = CN[C@@H](CC1CCCCC1)C(=O)O; Hyp = O=C(O)[C@@H]1C[C@@H](O)CN1; NMeChg = CN[C@H](C(=O)O)C1CCCCC1; NMeI = CC[C@H](C)[C@H](NC)C(=O)O; NMeD = CN[C@@H](CC(=O)O)C(=O)O; NMeL = CN[C@@H](CC(C)C)C(=O)O; NMehSer = CN[C@@H](CCO)C(=O)O; d(β3hA) = C[C@@H](N)CC(=O)O; NMeS = CN[C@@H](CO)C(=O)O; Morpholide = C1CN(*)CCO1; NMeA = CN[C@@H](C)C(=O)O; Nle = CCCC[C@H](N)C(=O)O; Piperidide = C1CCN(*)CC1; Pyrrolidide = C1CCN(*)C1; Ac5c = NC1(C(=O)O)CCCC1; Aze = O=C(O)[C@@H]1CCN1; CH2CMe2OH = CC(C)(O)C*; Aib = CC(C)(N)C(=O)O; Isopentyl = CC(C)CC*; Sar = CNCC(=O)O

target: T1, Kras and SOS1 (biotin-tagged human Kras loaded with GDP, His-tagged human SOS1) (Homo sapiens, UniProt P01116, G12D); experiment: Protein-protein interaction inhibition between Kras and SOS1 (KrasGl2D-SOS PPI) using AlphaScreen; assay type: binding; conditions: AlphaScreen; biotin-tagged human Kras loaded with GDP, His-tagged human SOS1; read-out: KRAS G12D-SOS PPI IC50
T1 construct: made in house; host or cells: E. coli (stated for Kras only)
In short: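 Binding between SOS1 and Kras is detected as bead-proximity luminescence: illuminate Ni-conjugated donors (680 nm), collect 520-620 nm emission from streptavidin-conjugated acceptors; Kras carries biotin and GDP loaded after purification, SOS1 carries a His tag.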

T1 sequence (P01116 1-188 isoform P01116-2 G12D): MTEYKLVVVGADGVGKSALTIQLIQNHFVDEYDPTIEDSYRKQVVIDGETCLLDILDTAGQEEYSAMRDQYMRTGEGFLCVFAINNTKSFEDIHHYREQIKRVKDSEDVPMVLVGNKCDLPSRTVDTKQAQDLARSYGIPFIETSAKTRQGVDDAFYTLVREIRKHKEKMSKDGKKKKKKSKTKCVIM

Row | SMILES | IC50 [nM]
1 | CC[C@H](C)[C@@H]1NC(=O)[C@H](CC(C)C)N(C)C(=O)C[C@@H](C(=O)N2CCCCC2)N(C)C(=O)[C@H](CC(C)C)N(C)C(=O)C(C)(C)NC(=O)[C@H](COCC(C)(C)O)N(C)C(=O)[C@H](CCc2ccc(C(F)(F)F)c(Cl)c2)NC(=O)CN(C)C(=O)[C@H](COCCC(C)C)N(C)C(=O)CN(C)C(=O)CN(C)C1=O [Compound 1541] ([NMeL]I[Sar][Sar][NMeS](Isopentyl)[Sar][hPhe(3-Cl-4-CF3)][NMeS](CH2CMe2OH)[Aib][NMeL][NMeD]-Piperidide; lactam N-11) | 4
2 | CCCC[C@@H]1NC(=O)[C@H](Cc2ccccc2F)NC(=O)CN(C)C(=O)[C@H](Cc2ccc(OC)cc2)N(C)C(=O)CN(C)C(=O)CN(C)C(=O)[C@H]([C@@H](C)CC)NC(=O)[C@H](CC(C)C)N(C)C(=O)C[C@@H](C(=O)N2CCCCC2)N(C)C(=O)[C@H](CC(C)C)NC(=O)[C@H](Cc2ccc(OC)cc2)N(C)C1=O [Compound 681] ([NMeL]I[Sar][Sar][NMeY](Me)[Sar][Phe(2-F)][Nle][NMeY](Me)L[NMeD]-Piperidide; lactam N-11) | 5.9
3 | CC[C@H](C)[C@@H]1NC(=O)[C@H](CC(C)C)N(C)C(=O)C[C@@H](C)NC(=O)[C@H](CC(C)C)N(C)C(=O)C2(CCCC2)NC(=O)[C@@H]2CCCN2C(=O)[C@H](CCc2ccc(C(F)(F)F)c(Cl)c2)NC(=O)CN(C)C(=O)[C@H](CC2CCCCC2)N(C)C(=O)CN(C)C(=O)CN(C)C1=O [Compound 1503] (cyclo([Ac5c][NMeL][d(β3hA)][NMeL]I[Sar][Sar][NMeCha][Sar][hPhe(3-Cl-4-CF3)]P)) | 16
4 | CC[C@H](C)[C@@H]1NC(=O)[C@H](CC(C)C)N(C)C(=O)C[C@@H](C(=O)N2CCCCC2)N(C)C(=O)[C@H](CCOC)N(C)C(=O)C2(CCCC2)NC(=O)[C@@H]2CCCN2C(=O)[C@H](CCc2ccc(C(F)(F)F)c(Cl)c2)NC(=O)CN(C)C(=O)[C@H](CC2CCCCC2)N(C)C(=O)CN(C)C(=O)CN(C)C1=O [Compound 744] ([NMeL]I[Sar][Sar][NMeCha][Sar][hPhe(3-Cl-4-CF3)]P[Ac5c][NMehSer](Me)[NMeD]-Piperidide; lactam N-11) | 7.5
5 | CCO[C@@H]1C[C@H]2C(=O)NC3(CCCC3)C(=O)N(C)[C@@H]([C@@H](C)CC)C(=O)N(C)[C@H](C(=O)N3CCOCC3)CC(=O)N(C)[C@@H](CC(C)C)C(=O)N[C@@H]([C@@H](C)CC)C(=O)N(C)[C@@H](C)C(=O)N3CC[C@H]3C(=O)N(C)[C@@H](Cc3ccc(C(F)(F)F)cc3)C(=O)N(C)CC(=O)N[C@@H](CCc3ccc(C(F)(F)F)c(Cl)c3)C(=O)N2C1 [Compound 1330] ([NMeL]I[NMeA][Aze][NMePhe(4-CF3)][Sar][hPhe(3-Cl-4-CF3)][Hyp](Et)[Ac5c][NMeI][NMeD]-Morpholide; lactam N-11) | 0.62
6 | CC[C@H](C)[C@@H]1NC(=O)[C@H](CC(C)C)N(C)C(=O)C[C@@H](C(=O)N2CCS(=O)(=O)CC2)N(C)C(=O)[C@H](C2CCCCC2)N(C)C(=O)C2(CCCC2)NC(=O)[C@@H]2CCCN2C(=O)[C@H](CCc2ccc(C(F)(F)F)c(Cl)c2)NC(=O)CN(C)C(=O)[C@H](CC2CCCCC2)N(C)C(=O)CN(C)C(=O)CN(C)C1=O [Compound 1263] ([NMeL]I[Sar][Sar][NMeCha][Sar][hPhe(3-Cl-4-CF3)]P[Ac5c][NMeChg][NMeD]-{Thiomorpholino(1,1-dioxo)}; lactam N-11) | 2.7
7 | CC[C@H](C)[C@@H]1NC(=O)[C@H](CC(C)C)N(C)C(=O)C[C@@H](C(=O)N2CCCCC2)N(C)C(=O)[C@H](C2CCCCC2)N(C)C(=O)C2(CCCC2)NC(=O)[C@H](Cc2ccc(C)nc2)N(C)C(=O)[C@H](CCc2ccc(C(F)(F)F)c(Cl)c2)NC(=O)CN(C)C(=O)[C@H](CC2CCCCC2)N(C)C(=O)[C@@H]2CCN2C(=O)CN(C)C1=O [Compound 786] ([NMeL]I[Sar][Aze][NMeCha][Sar][hPhe(3-Cl-4-CF3)][NMe3Pal(6-Me)][Ac5c][NMeChg][NMeD]-Piperidide; lactam N-11) | 6
8 | CC[C@H](C)[C@@H]1NC(=O)[C@H](CC(C)C)N(C)C(=O)C[C@@H](C(=O)N2CCCC2)N(C)C(=O)[C@H](C2CCCC2)N(C)C(=O)C2(CCCC2)NC(=O)[C@@H]2CC(F)(F)CN2C(=O)[C@H](CCc2cc(F)c(C(F)(F)F)c(F)c2)NC(=O)CN(C)C(=O)[C@H](CC2CCCCC2)N(C)C(=O)CN(C)C(=O)CN(C)C1=O [Compound 1166] ([NMeL]I[Sar][Sar][NMeCha][Sar][hPhe(3,5-F2-4-CF3)][Pro(4,4-F2)][Ac5c][NMeGly(cPent)][NMeD]-Pyrrolidide; lactam N-11) | 0.47
